# Measured values published in paper PMC4768256, “Using mutagenesis to explore conserved residues in the RNA-binding groove of influenza A virus nucleoprotein for antiviral drug development” (Scientific Reports, 2016).
# Target: T1, NP (nucleoprotein of influenza A virus H1N1, full-length wild type) (Influenza A virus (A/Nanchang/11/1996(H1N1)), UniProt Q07FI1)
# T1 construct: full-length (498 aa), N-terminal 6xHis-tag as printed, pET21b NdeI/XhoI, E. coli, Ni-NTA, RNase-treated lysate
# Format: binding
# T1 sequence (Q07FI1 whole entry): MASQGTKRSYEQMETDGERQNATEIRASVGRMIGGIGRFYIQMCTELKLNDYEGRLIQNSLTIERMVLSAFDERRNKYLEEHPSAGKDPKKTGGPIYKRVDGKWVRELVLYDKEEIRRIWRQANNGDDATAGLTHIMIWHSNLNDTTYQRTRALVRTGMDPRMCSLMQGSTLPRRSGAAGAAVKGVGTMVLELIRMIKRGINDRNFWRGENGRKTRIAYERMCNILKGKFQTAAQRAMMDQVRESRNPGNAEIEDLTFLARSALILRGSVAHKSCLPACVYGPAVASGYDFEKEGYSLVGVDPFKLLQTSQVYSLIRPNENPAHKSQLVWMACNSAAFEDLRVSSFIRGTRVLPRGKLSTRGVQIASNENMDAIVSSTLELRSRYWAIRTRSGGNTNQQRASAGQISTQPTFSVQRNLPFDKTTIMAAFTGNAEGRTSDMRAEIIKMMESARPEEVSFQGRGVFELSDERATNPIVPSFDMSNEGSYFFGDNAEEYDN
smiles,measurement,value
"COc1cc(/C=C/C(=O)CC(=O)/C=C/c2ccc(O)c(OC)c2)ccc1O [H7, (E,E)-1,7-bis(4-hydroxy-3-methoxyphenyl)-1,6-heptadiene-3,5-dione]",Kd,1220 nM
